From patent US20200369630A1, “HERBICIDALLY ACTIVE 3-PHENYL-5-TRIFLUOROMETHYLISOXAZOLINE-5-CARBOXAMIDES OF CYCLOPENTYLCARBOXYLIC ACIDS AND ESTERS” (Bayer Aktiengesellschaft, priority 2017, published 2020)

Key:
Test in all cases: Post-emergence herbicidal action
Type in all cases: in vivo
[1] = system: AMARE: Amaranthus retroflexus; details: rated visually after about 3 weeks
Procedure: (§1) [table] Seeds of monocotyledonous and dicotyledonous weeds and crop plants are placed in sandy loam in plastic or wood-fiber pots, covered with soil and cultivated in a greenhouse under controlled growth conditions. 2 to 3 weeks after sowing, the test plants are treated at the one-leaf stage. The compounds of the invention, formulated in the form of wettable powders (WP) or as emulsion concentrates (EC), are then sprayed onto the green parts of the plants as aqueous suspension or emulsion with addition of 0.5% additive at a water application rate of […] (converted). After the test plants had been kept in the greenhouse under optimum growth conditions for about 3 weeks, the activity of the preparations is rated visually in comparison to untreated controls. For example, 100% activity=the plants have died, 0% activity=like control plants.

VERPE: Veronica persica = details: rated visually after about 3 weeks
Procedure: as §1

[2] = system: POLCO: Polygonum convolvulus; details: rated visually after about 3 weeks
Procedure: as §1

[3] = system: ALOMY: Alopecurus myosuroides; details: rated visually after about 3 weeks
Procedure: as §1

AVEFA: Avena fatua = details: Table C2, post-emergence, dosage 320 (0.32 kg of active substance per hectare), rated visually after about 3 weeks
Procedure: as §1

HORMU: Hordeum murinum = details: rated visually after about 3 weeks
Procedure: as §1

[4] = system: ECHCG: Echinochloa crus-galli; details: Table C2, post-emergence, dosage 320 (0.32 kg of active substance per hectare), rated visually after about 3 weeks
Procedure: as §1

LOLRI: Lolium rigidum = details: rated visually after about 3 weeks
Procedure: as §1

STEME: Stellaria media = details: Table C2, post-emergence, dosage 320 (0.32 kg of active substance per hectare), rated visually after about 3 weeks
Procedure: as §1

[5] = Table C2, post-emergence, dosage 320 (0.32 kg of active substance per hectare)
[6] = Table C4, post-emergence, 320 g/ha

| Structure (SMILES) | Herbicidal action against [%] AMARE [1, 5] | Herbicidal action against [%] VERPE (VERPE: Veronica persica; [5]) | Herbicidal action against [%] POLCO [2, 5] | Herbicidal action against [%] ALOMY [3, 5] | Herbicidal action against [%] AVEFA (AVEFA: Avena fatua) | Herbicidal action against [%] HORMU (HORMU: Hordeum murinum; [5]) | Herbicidal action against [%] ECHCG [4] | Herbicidal action against [%] LOLRI (LOLRI: Lolium rigidum; [5]) | Herbicidal action against [%] STEME (STEME: Stellaria media) | Herbicidal action against [%] AMARE [1, 6] | Herbicidal action against [%] VERPE (VERPE: Veronica persica; [6]) | Herbicidal action against [%] POLCO [2, 6] | Herbicidal action against [%] ALOMY [3, 6] | Herbicidal action against [%] HORMU (HORMU: Hordeum murinum; [6]) | Herbicidal action against [%] LOLRI (LOLRI: Lolium rigidum; [6]) |
| --- | --- | --- | --- | --- | --- | --- | --- | --- | --- | --- | --- | --- | --- | --- | --- |
| COC(=O)C1CCC(NC(=O)C2(C(F)(F)F)CC(c3cc(F)c(F)c(F)c3)=NO2)C1 (mixture of isomers) [Example I-171] | 80% | 80% | 80% | 100% | 90% | 80% | 80% | 100% | 80% | – | – | – | – | – | – |
| CCOC(=O)C1CCC(NC(=O)C2(C(F)(F)F)CC(c3cc(F)c(F)c(F)c3)=NO2)C1 (mixture of isomers) [Example I-185] | 80% | 80% | 90% | 90% | 100% | 90% | 80% | 90% | 80% | – | – | – | – | – | – |
| O=C(O)C1CCC(NC(=O)C2(C(F)(F)F)CC(c3cccc(F)c3)=NO2)C1 (mixture of isomers) [Example I-311] | 90% | 90% | 100% | 100% | 100% | 100% | 100% | 100% | 100% | – | – | – | – | – | – |
| COC(=O)C1CCC(NC(=O)C2(C(F)(F)F)CC(c3cccc(F)c3)=NO2)C1 (mixture of isomers) [Example I-325] | 80% | 80% | 80% | 90% | 100% | 90% | 90% | 100% | 90% | – | – | – | – | – | – |
| CCOC(=O)C1CCC(NC(=O)C2(C(F)(F)F)CC(c3cccc(F)c3)=NO2)C1 (mixture of isomers) [Example I-339] | 100% | 90% | 100% | 100% | 100% | 100% | 100% | 100% | 100% | – | – | – | – | – | – |
| O=C(OCCCl)C1CCC(NC(=O)C2(C(F)(F)F)CC(c3cccc(F)c3)=NO2)C1 (mixture of isomers) [Example I-409] | 90% | 90% | 100% | 100% | 100% | 100% | 100% | 100% | 100% | – | – | – | – | – | – |
| O=C(OCC(F)(F)F)C1CCC(NC(=O)C2(C(F)(F)F)CC(c3cccc(F)c3)=NO2)C1 (mixture of isomers) [Example I-423] | 90% | 90% | 90% | 100% | 100% | 100% | 100% | 100% | 100% | – | – | – | – | – | – |
| CCOC(=O)C1CCC(NC(=O)C2(C(F)(F)F)CC(c3cc(C)cc(F)c3)=NO2)C1 (mixture of isomers) [Example I-543] | 100% | 90% | 100% | 90% | 100% | 80% | 90% | 90% | 80% | – | – | – | – | – | – |
| COC(=O)C1CCC(NC(=O)C2(C(F)(F)F)CC(c3cc(C)cc(Cl)c3)=NO2)C1 (mixture of isomers) [Example I-802] | 90% | 90% | 100% | 90% | 100% | 80% | 80% | 90% | 90% | – | – | – | – | – | – |
| Cc1cc(Cl)cc(C2=NOC(C(=O)NC3CCC(C(=O)OCCCl)C3)(C(F)(F)F)C2)c1 (mixture of isomers) [Example I-838] | – | – | – | – | – | – | – | – | – | 80% | 80% | 100% | 100% | 90% | 100% |
| Cc1cc(Cl)cc(C2=NOC(C(=O)NC3CCC(C(=O)OCC(F)(F)F)C3)(C(F)(F)F)C2)c1 (mixture of isomers) [Example I-844] | – | – | – | – | – | – | – | – | – | – | 90% | 100% | 100% | 80% | 90% |
| CC(C)(C)OC(=O)[C@H]1CC[C@@H](NC(=O)C2(C(F)(F)F)CC(c3cc(F)cc(F)c3)=NO2)C1 (relative stereo) [Example I-85, tert-butyl cis-3-({[3-(3,5-difluorophenyl)-5-(trifluoromethyl)-4,5-dihydro-1,2-oxazol-5-yl]carbonyl}amino)cyclopentanecarboxylate] | – | – | – | – | – | – | – | – | – | 80% | 80% | – | 90% | 90% | 90% |
| O=C(O)[C@@H]1CC[C@H](NC(=O)[C@@]2(C(F)(F)F)CC(c3cc(F)cc(F)c3)=NO2)C1 [Example I-11, (1R,3S)-3-({[(5R)-3-(3,5-difluorophenyl)-5-(trifluoromethyl)-4,5-dihydro-1,2-oxazol-5-yl]carbonyl}amino)cyclopentanecarboxylic acid] | 80% | 80% | 80% | 80% | 90% | 80% | 80% | 90% | 90% | – | – | – | – | – | – |
| COC(=O)[C@H]1CC[C@H](NC(=O)C2(C(F)(F)F)CC(c3cc(F)cc(F)c3)=NO2)C1 (stereo partly drawn) [Example I-20, methyl (1S,3S)-3-({[3-(3,5-difluorophenyl)-5-(trifluoromethyl)-4,5-dihydro-1,2-oxazol-5-yl]carbonyl}amino)cyclopentanecarboxylate] | – | – | – | – | – | – | – | – | – | 80% | 90% | – | 80% | 90% | 90% |
| COC(=O)[C@H]1CC[C@H](NC(=O)[C@@]2(C(F)(F)F)CC(c3cc(F)cc(F)c3)=NO2)C1 [Example I-28] | – | – | – | – | – | – | – | – | – | – | 80% | 80% | 80% | 90% | 90% |
| CCOC(=O)[C@H]1CC[C@H](NC(=O)[C@@]2(C(F)(F)F)CC(c3cc(F)cc(F)c3)=NO2)C1 [Example I-42] | 80% | 80% | 80% | 80% | 90% | 90% | 80% | 90% | 90% | – | – | – | – | – | – |
| CCCOC(=O)[C@@H]1CC[C@H](NC(=O)[C@@]2(C(F)(F)F)CC(c3cc(F)cc(F)c3)=NO2)C1 [Example I-53] | 90% | 90% | 100% | 100% | 100% | 100% | 100% | 100% | 100% | – | – | – | – | – | – |
| CC(C)OC(=O)[C@@H]1CC[C@H](NC(=O)[C@@]2(C(F)(F)F)CC(c3cc(F)cc(F)c3)=NO2)C1 [Example I-67] | 90% | 90% | 90% | 100% | 100% | 100% | 90% | 100% | 100% | – | – | – | – | – | – |
